Our source for the meloxicam plasma concentration values is patent publication US8389512B2 (priority 2008, dated 2013).

Structures are written as SMILES.

This data set can be described thus: 4 hr in-vivo study: meloxicam plasma concentration after oral delivery to rats. As to conditions: rat.

Description: Male Sprague-Dawley rats, 250-300 g, received with a surgically implanted jugular catheter in place from (Harlan or Taconic Laboratories, USA). Animals were housed one per polycarbonate cage utilizing individual cage cards, with free access to food and water in accordance with NIH guidelines. Animals were quarantined at least 24 hrs after arrival prior to use and patency of the implanted catheter determined on the day of the test. Environmental controls for the animal room were set to maintain 18 to 26° C., a relative humidity of 30 to 70%, a minimum of 10 air changes/hour, and a 12-hour light/12-hour dark cycle. […] Each rat was weighed and the dose volume adjusted accordingly so that the effect of weight variability on results of study was eliminated and that each rat received 1 mg/kg dose.
Briefly, using a gradient elution with a Waters Symmetry C18 column (Waters Inc. USA), LCMS with selective reaction monitoring, protein precipitation of the plasma sample using acetonitrile where an LOQ of 50 ng/ml was achieved. Pharmacokinetic parameters were calculated from individual animal samples using appropriate software (PK Solutions 2.0, Summit Research Services, Montrose, Calif., USA).

On to `Cc1cnc(NC(=O)C2=C(O)c3ccccc3S(=O)(=O)N2C)s1.O=C(O)CC(=O)O` [Cocrystal 22, Meloxicam:Malonic Acid Cocrystal (1:1)], for which the meloxicam plasma concentration by setting is: (time 0 min) 0 µg/mL; (time 15 min) 7.51 µg/mL; (time 30 min) 22.15 µg/mL; (time 45 min) 27.00 µg/mL; (time 60 min) 29.33 µg/mL; (time 120 min) 29.57 µg/mL.
As for `Cc1cnc(NC(=O)C2=C(O)c3ccccc3S(=O)(=O)N2C)s1.O=C(O)c1ccccc1` [Cocrystal 153, Meloxicam:Benzoic Acid Cocrystal (1:1)], the meloxicam plasma concentration is, setting by setting: (time 0 min) 0 µg/mL; (time 15 min) 21.94 µg/mL; (time 30 min) 25.88 µg/mL; (time 45 min) 28.30 µg/mL; (time 60 min) 28.11 µg/mL; (time 120 min) 33.31 µg/mL. In addition, under “time 240 min”, the meloxicam plasma concentration stood at 42.51 µg/mL.
In the case of `Cc1cnc(NC(=O)C2=C(O)c3ccccc3S(=O)(=O)N2C)s1.O=C(O)CCCC(=O)O` [Cocrystal 92, Meloxicam:Glutaric Acid Cocrystal (1:1)], the meloxicam plasma concentration was found to be 0 µg/mL (time 0 min); 5.61 µg/mL (time 15 min); 13.16 µg/mL (time 30 min); 19.11 µg/mL (time 45 min); 27.72 µg/mL (time 60 min); 35.94 µg/mL (time 120 min). The compound further had a meloxicam plasma concentration (time 240 min) of 55.35 µg/mL.
Compound `Cc1cnc(NC(=O)C2=C(O)c3ccccc3S(=O)(=O)N2C)s1.O=C(O)c1ccccc1O` [Cocrystal 87, Meloxicam:Salicylic Acid Cocrystal Form I (1:1)] displayed a meloxicam plasma concentration (time 0 min) of 0 µg/mL; a meloxicam plasma concentration (time 15 min, listed as 87) of 23.61 µg/mL; a meloxicam plasma concentration (time 30 min, listed as 87) of 26.76 µg/mL; a meloxicam plasma concentration (time 45 min, listed as 87) of 28.85 µg/mL; a meloxicam plasma concentration (time 60 min, listed as 87) of 26.79 µg/mL; a meloxicam plasma concentration (time 120 min, listed as 87) of 34.16 µg/mL. This compound also gave a meloxicam plasma concentration (time 240 min, listed as 87) of 36.54 µg/mL.
The compound `Cc1cnc(NC(=O)C2=C(O)c3ccccc3S(=O)(=O)N2C)s1.Cc1cnc(NC(=O)C2=C(O)c3ccccc3S(=O)(=O)N2C)s1.O=C(O)CC(O)C(=O)O` [Cocrystal 154, Meloxicam:DL-Malic Acid Cocrystal (2:1)] registered a meloxicam plasma concentration (time 0 min) of 0 µg/mL; a meloxicam plasma concentration (time 15 min) of 11.19 µg/mL; a meloxicam plasma concentration (time 30 min) of 16.59 µg/mL; a meloxicam plasma concentration (time 45 min) of 21.96 µg/mL; a meloxicam plasma concentration (time 60 min) of 24.90 µg/mL; a meloxicam plasma concentration (time 120 min) of 32.31 µg/mL. This compound also gave a meloxicam plasma concentration (time 240 min) of 49.72 µg/mL.
On to `Cc1cnc(NC(=O)C2=C(O)c3ccccc3S(=O)(=O)N2C)s1.O=C(O)CO` [Cocrystal 28, Meloxicam:Glycolic Acid Cocrystal (1:1)], for which the meloxicam plasma concentration reads like this: (time 0 min) 0 µg/mL; (time 15 min) 6.25 µg/mL; (time 30 min) 16.88 µg/mL; (time 45 min) 22.66 µg/mL; (time 60 min) 27.26 µg/mL; (time 120 min) 20.77 µg/mL. For the same compound, the meloxicam plasma concentration (time 240 min) came to 34.50 µg/mL.
On to `Cc1cnc(NC(=O)C2=C(O)c3ccccc3S(=O)(=O)N2C)s1.O=C(O)CCc1ccccc1` [Cocrystal 164, Meloxicam:Hydrocinnamic Acid Cocrystal (1:1)], for which the meloxicam plasma concentration amounted to 0 µg/mL (time 0 min); 9.53 µg/mL (time 15 min); 11.42 µg/mL (time 30 min); 16.19 µg/mL (time 45 min); 18.24 µg/mL (time 60 min); 25.918 µg/mL (time 120 min). The compound also registered a meloxicam plasma concentration (time 240 min) of 45.70 µg/mL.
On to `Cc1cnc(NC(=O)C2=C(O)c3ccccc3S(=O)(=O)N2C)s1.Cc1cnc(NC(=O)C2=C(O)c3ccccc3S(=O)(=O)N2C)s1.O=C(O)/C=C/C(=O)O` [Cocrystal 143, Meloxicam:Fumaric Acid Cocrystal (2:1)], for which the meloxicam plasma concentration by setting is: (time 0 min) 0 µg/mL; (time 15 min) 3.33 µg/mL; (time 30 min) 6.69 µg/mL; (time 45 min) 9.69 µg/mL; (time 60 min) 13.39 µg/mL; (time 120 min) 20.93 µg/mL. The same compound displayed a meloxicam plasma concentration (time 240 min) of 30.23 µg/mL.
Consider `Cc1cnc(NC(=O)C2=C(O)c3ccccc3S(=O)(=O)N2C)s1.Cc1cnc(NC(=O)C2=C(O)c3ccccc3S(=O)(=O)N2C)s1.O=C(O)CCCCC(=O)O` [Cocrystal 152, Meloxicam:Adipic Acid Cocrystal (2:1)], for which the meloxicam plasma concentration is, setting by setting: (time 0 min) 0 µg/mL; (time 15 min) 9.72. μg/ml; (time 30 min) 22.85 µg/mL; (time 45 min) 28.37 µg/mL; (time 60 min) 30.09 µg/mL; (time 120 min) 38.23 µg/mL. In addition, the meloxicam plasma concentration (time 240 min) amounted to 47.85 µg/mL.
As to `Cc1cnc(NC(=O)C2=C(O)c3ccccc3S(=O)(=O)N2C)s1.Cc1cnc(NC(=O)C2=C(O)c3ccccc3S(=O)(=O)N2C)s1.O=C(O)C[C@H](O)C(=O)O` [Cocrystal 71, Meloxicam: L-Malic Acid Cocrystal (2:1)], the meloxicam plasma concentration is, setting by setting: (time 0 min) 0 µg/mL; (time 15 min) 24.98 µg/mL; (time 30 min) 32.05 µg/mL; (time 45 min) 30.38 µg/mL; (time 60 min) 30.95 µg/mL; (time 240 min) 38.59 µg/mL.
